Source: patent US20210355104A1, “ADENOSINE RECEPTOR BINDING COMPOUNDS” (Nikang Therapeuticsm Inc., priority 2018, published 2021)
Several values for one entry are separate records, joined by “and”; a condition that tells them apart may be missing. Identical values can stand only once. Like-named read-outs stand apart in the source and are kept apart here.

Legend:
[1] = biological target: T1, Adenosine A2A receptor (Homo sapiens, UniProt P29274); test: cAMP assay in 293A cells stably expressing the adenosine A2A receptor (CGS21680 stimulation, HTRF); assay type: cell-based; parameters: expressed in transfected cells; host or cells: 293A cells (Invitrogen, Cat# R705-07) infected with A2A-expressing lentivirus (custom packaged by Biosettia), puromycin selected; details: 293A-A2AR cells, 0.1% BSA
[2] = test system: p-CREB (phosphorylated cAMP response-element binding protein) in human whole blood; test: p-CREB assay in human whole blood by flow cytometry (NECA stimulation, CD4 staining); assay type: cell-based
Method: Assay protocol for p-CREB (phosphorylated cAMP response-element binding protein) in human whole blood by flow cytometry
Fresh human whole blood (Biological Specialty Corporation) was added at 100 ul per wellinto a 96-well plate and treated with test compounds (Serial dilutions of 1:3 with starting concentration at 30 uM, 11 concentrations total, in the presence of adenosine deaminase) for one hour at room temperature on a plate shaker. Then 10 ul of 10× NECA (50 uM stock in PBS) and 10 ul of 10 × Rolipram (50 uM stock in PBS) were added, with designated wells for unstimulated (Rolipram+DMSO) and stimulated (Rolipram+NECA+DMSO) conditions. The plates were mixed well and incubated at room temperature for 30 min on a plate shaker. 1× lyse/Fix buffer (5× stock, BD #558049) was warmed to 37° in a water bath. 1200 ul of pre-warmed 1× lyse/Fix buffer was then added to the plate, which was then sealed and mixed by inverting the plate a few times. The plate was then incubated for 30 min at 37° in a water bath. After incubation, the plate was centrifuged at 1600 rpm for 5 min and the supernatant was decanted, then 1200 ul PBS was added and the plate was mixed by inverting a few times followed by centrifuging at 1600 rpm for 5 min and again decanting the supernatant. Then, 200 ul FIX PERM buffer II (BD #558052) was added and the plate was mixed well, then kept on ice for 45 min After spinning the plate at 1600 rpm for 5 min the supernatant was again decanted. Then was added 200 ul staining buffer (BD #554657), and the plate was mixed well and spun at 1600 rpm for 5 min, then the supernatant was again decanted. 200 ul staining buffer was added, the plate was mixed well and the plate was sealed at this step for storage at 4° overnight or until staining. Before staining, the plate was spun at 1600 rpm for 5 min and the supernatant was again decanted. Antibody mix in staining buffer was prepared (75 ul/well, 1:50 dilution for p-CREB antibody from Cell Signaling Tech #14001S, 1:200 dilution for CD4 antibody from BD #566320) and the cells were resuspended in the above antibody mix solution. After mixing well, the plate was incubated (shielded from light) at room temperature for two hours on a plate shaker. It was then spun at 1600 rpm for 5 min and the supernatant was decanted. 200 ul staining buffer was then added to wash cells, and the plate was then mixed by shaking or pipetting. The wash step was repeated at least one more time, and after the final wash, cells were resusptended in 200 ul staining buffer in U bottom plate for flow cytometry analysis.

[3] = biological target: T1, Adenosine A2A receptor; test: Adenosine A2A receptor competitive binding assay (Tag-lite HTRF); details: Tag-lite adenosine A2A receptor ligand binding, HTRF
Summary of the method: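 Compound displacement of a red fluorescent antagonist tracer (added at 60 nM stock) from donor-labelled, pre-transfected human A2A cells was read by HTRF after 2 h at room temperature; compound dilutions contained 0.6% DMSO.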

[4] = 1 uM CGS, read-out: cAMP (nM) 0.1% BSA, 1 uM CGS
[5] = 8 nM CGS, values separated by / are repeat determinations, read-out: cAMP (nM) 0.1% BSA, 8 nM CGS
[6] = 1 uM CGS, values separated by / are repeat determinations, read-out: cAMP (nM) 0.1% BSA, 1 uM CGS
[7] = Homo sapiens, values separated by / are repeat determinations
[8] = 8 nM CGS, read-out: cAMP (nM) 0.1% BSA, 8 nM CGS

T1 sequence (P29274 whole entry): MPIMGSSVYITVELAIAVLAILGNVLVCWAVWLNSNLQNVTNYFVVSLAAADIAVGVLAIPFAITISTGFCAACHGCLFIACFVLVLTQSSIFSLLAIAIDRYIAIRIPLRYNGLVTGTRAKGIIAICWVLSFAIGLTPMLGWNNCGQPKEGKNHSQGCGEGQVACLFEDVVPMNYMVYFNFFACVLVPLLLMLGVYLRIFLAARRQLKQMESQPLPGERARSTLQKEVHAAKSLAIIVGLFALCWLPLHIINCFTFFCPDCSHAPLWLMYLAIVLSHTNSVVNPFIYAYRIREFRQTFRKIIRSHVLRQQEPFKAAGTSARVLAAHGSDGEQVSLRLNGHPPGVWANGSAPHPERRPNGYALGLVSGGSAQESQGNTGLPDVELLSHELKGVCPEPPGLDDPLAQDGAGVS

Row | IC50 [1, 4] | IC50 ([2]; Homo sapiens) [nM] | IC50 [3] | SMILES | further results
1 | 1240 nM | 374 |  | Cc1cc(-c2c(OCc3cccc([C@@H]4C[C@H]4C(=O)O)n3)nc(N)nc2-c2ccc(F)cc2)cc(C(F)F)n1 (relative stereo) [Example 353, (1,2-trans)-2-(6-(((2-amino-5-(2-(difluoromethyl)-6-methylpyridin-4-yl)-6-(4-fluorophenyl)pyrimidin-4-yl)oxy)methyl)pyridin-2-yl)cyclopropane-1-carboxylic acid] | 
2 | 563 nM and 977 nM | 549 |  | Cc1cc(-c2c(OCc3cccc([C@@H]4C[C@@H]4C(=O)O)n3)nc(N)nc2-c2ccc(F)cc2)cc(C(F)F)n1 (relative stereo) [Example 354, (1,2-cis)-2-(6-(((2-amino-5-(2-(difluoromethyl)-6-methylpyridin-4-yl)-6-(4-fluorophenyl)pyrimidin-4-yl)oxy)methyl)pyridin-2-yl)cyclopropane-1-carboxylic acid] | 
3 |  |  |  | CCN(CC)C(=O)COc1nc(N)nc(-c2ccccc2)c1-c1cc(C)nc(C(F)(F)F)c1 [Example 3, 2-((2-amino-5-(2-methyl-6-(trifluoromethyl)pyridin-4-yl)-6-phenylpyrimidin-4-yl)oxy)-N,N-diethylacetamide] | IC50 [1, 5]: 0.6 nM; IC50 [1, 6]: 69 nM and 24 nM; IC50 [2, 7]: 47 nM
4 |  |  |  | Cc1cc(-c2c(OCc3nccn3C(C)C)nc(N)nc2-c2ccc(F)cc2)cc(C(F)F)n1 [Example 99, 5-(2-(difluoromethyl)-6-methylpyridin-4-yl)-4-(4-fluorophenyl)-6-((1-isopropyl-1H-imidazol-2-yl)methoxy)pyrimidin-2-amine] | IC50 [1, 5]: 0.064 nM and 0.19 nM; IC50 [1, 6]: 32 nM and 22 nM; IC50 [2, 7]: 47 nM
5 | 7.16 nM |  | 9.3 nM | Cc1cc(-c2c(OCCOc3cccc(N(C)CCO)n3)nc(N)nc2-c2ccc(F)cc2)cc(C(F)F)n1 [Example 213, 2-((6-(2-((2-amino-5-(2-(difluoromethyl)-6-methylpyridin-4-yl)-6-(4-fluorophenyl)pyrimidin-4-yl)oxy)ethoxy)pyridin-2-yl)(methyl)amino)ethan-1-ol] | IC50 [1, 8]: 3.4 nM
6 | 327 nM |  | 4.5 nM | Cc1cc(-c2c(OCc3ccn(CC4CC4)n3)nc(N)nc2-c2ccc(F)cc2)cc(C(F)F)n1 [Example 214] | 
7 | 965 nM |  | 9.7 nM | Cc1cc(-c2c(OCc3nccn3CS(C)(=O)=O)nc(N)nc2-c2ccc(F)cc2)cc(C(F)F)n1 [Example 215, 5-(2-(difluoromethyl)-6-methylpyridin-4-yl)-4-(4-fluorophenyl)-6-((1-((methylsulfonyl)methyl)-1H-imidazol-2-yl)methoxy)pyrimidin-2-amine] | 
8 | 6500 nM |  | 21 nM | Cc1cc(-c2c(OCc3ccc(C(C)(C)O)cn3)nc(N)nc2-c2ccc(F)cc2)cc(C(F)F)n1 [Example 217, 2-(6-(((2-amino-5-(2-(difluoromethyl)-6-methylpyridin-4-yl)-6-(4-fluorophenyl)pyrimidin-4-yl)oxy)methyl)pyridin-3-yl)propan-2-ol] | 
9 | 76 nM and 48 nM |  | 1.7 nM | Cc1cc(-c2c(OCc3ccncn3)nc(N)nc2-c2ccc(F)cc2)cc(C(F)F)n1 [Example 218, 5-(2-(difluoromethyl)-6-methylpyridin-4-yl)-4-(4-fluorophenyl)-6-(pyrimidin-4-ylmethoxy)pyrimidin-2-amine] | 
10 | 444 nM |  | 24 nM | CCn1cnc(COc2nc(N)nc(-c3ccc(F)cc3)c2-c2cc(C)nc(C(F)F)c2)n1 [Example 221, 5-(2-(difluoromethyl)-6-methyipyridin-4-yl)-4-((1-ethyl-1H-1,2,4-triazol-3-yl)methoxy)-6-(4-fluorophenyl)pyrimidin-2-amine] | 
11 | 788 nM |  | 4.1 nM | Cc1cc(-c2c(OCc3cccnn3)nc(N)nc2-c2ccc(F)cc2)cc(C(F)F)n1 [Example 223, 5-(2-(difluoromethyl)-6-methylpyridin-4-yl)-4-(4-fluorophenyl)-6-(pyridazin-3-ylmethoxy)pyrimidin-2-amine] | 
12 | 1320 nM |  | 9.5 nM | Cc1cc(-c2c(OCc3cc(C(C)(C)O)ccn3)nc(N)nc2-c2ccc(F)cc2)cc(C(F)F)n1 [Example 224, 2-(2-(((2-amino-5-(2-(difluoromethyl)-6-methylpyridin-4-yl)-6-(4-fluorophenyl)pyrimidin-4-yl)oxy)methyl)pyridin-4-yl)propan-2-ol] | 
13 | 29 nM and 97 nM and 71 nM | 17.8 |  | CCn1nccc1COc1nc(N)nc(-c2ccc(F)cc2)c1-c1cc(C)nc(C(F)F)c1 [Example 227, 5-(2-(difluoromethyl)-6-methylpyridin-4-yl)-4-((1-ethyl-1H-pyrazol-5-yl)methoxy)-6-(4-fluorophenyl)pyrimidin-2-amine] | 
14 | 162 nM |  | 2.5 nM and 3.6 nM | CCn1ccc(COc2nc(N)nc(-c3ccc(F)cc3)c2-c2cc(C)nc(C(F)F)c2)n1 [Example 228, 5-(2-(difluoromethyl)-6-methylpyridin-4-yl)-4-((1-ethyl-1H-pyrazol-3-yl)methoxy)-6-(4-fluorophenyl)pyrimidin-2-amine] | IC50 [1, 8]: 0.9 nM
15 | 7 nM and 40 nM and 64 nM | 32.4 |  | Cc1cc(-c2c(OCc3cccc(C(C)(C)C#N)n3)nc(N)nc2-c2ccc(F)cc2)cc(C(F)F)n1 [Example 230, 2-(6-(((2-amino-5-(2-(difluoromethyl)-6-methylpyridin-4-yl)-6-(4-fluorophenyl)pyrimidin-4-yl)oxy)methyl)pyridin-2-yl)-2-methylpropanenitrile] | IC50 [2]: 37.6 nM
16 | 313 nM | 36.3 |  | Cc1cc(-c2c(OCc3ncccc3C(C)(C)O)nc(N)nc2-c2ccc(F)cc2)cc(C(F)F)n1 [Example 238] | 
17 | 213 nM | 221 |  | Cc1cc(-c2c(OCc3nnn(C)n3)nc(N)nc2-c2ccc(F)cc2)cc(C(F)F)n1 [Example 241, 5-(2-(difluoromethyl)-6-methylpyridin-4-yl)-4-(4-fluorophenyl)-6-((2-methyl-2H-tetrazol-5-yl)methoxy)pyrimidin-2-amine] | 
18 | 250 nM and 171 nM | 19 |  | Cc1cc(-c2c(OCc3cc(C(C)(C)C#N)ccn3)nc(N)nc2-c2ccc(F)cc2)cc(C(F)F)n1 [Example 257, 2-(2-(((2-amino-5-(2-(difluoromethyl)-6-methylpyridin-4-yl)-6-(4-fluorophenyl)pyrimidin-4-yl)oxy)methyl)pyridin-4-yl)-2-methylpropanenitrile] | 
19 |  | 4910 |  | Cc1cc(-c2c(OCc3ccnc(N4CC(C)(O)C4)n3)nc(N)nc2-c2ccc(F)cc2)cc(C(F)F)n1 [Example 266, 1-(4-(((2-amino-5-(2-(difluoromethyl)-6-methylpyridin-4-yl)-6-(4-fluorophenyl)pyrimidin-4-yl)oxy)methyl)pyrimidin-2-yl)-3-methylazetidin-3-ol] | 
20 |  | 5580 |  | Cc1cc(-c2c(OCc3ccn(CC(C)(C)C(=O)O)n3)nc(N)nc2-c2ccc(F)cc2)cc(C(F)F)n1 [Example 267, 3-(3-(((2-amino-5-(2-(difluoromethyl)-6-methylpyridin-4-yl)-6-(4-fluorophenyl)pyrimidin-4-yl)oxy)methyl)-1H-pyrazol-1-yl)-2,2-dimethylpropanoic acid] | 
21 | 175 nM and 69 nM and 201 nM |  | 7.4 nM | CCn1nnnc1COc1nc(N)nc(-c2ccc(F)cc2)c1-c1cc(C)nc(C(F)F)c1 [Example 295, 5-(2-(difluoromethyl)-6-methylpyridin-4-yl)-4-((1-ethyl-1H-tetrazol-5-yl)methoxy)-6-(4-fluorophenyl)pyrimidin-2-amine] | 
